Like-named read-outs stand apart in the source and are kept apart here.
Experiments:
[1] = tested on: receptor-negative human melanoma M21L cells; experiment: Cell uptake and internalization in M21L cells; assay type: cell-based; details: negative M21L cell line, 37 °C, 90 min
Method: (§1) Cell uptake and internalization studies were performed on receptor-positive human melanoma M21 (expressing high levels of αvβ3 integrin and moderate level of integrin αvβ5), human breast cancer MCF7 (exclusively expressing αvβ5), and receptor-negative human melanoma M21L cell lines. The expression of αvβ3 and αvβ5 by cells was already evaluated by flow cytometry (Table 2). The stability of each radiolabeled peptide in the culture media before and after cell exposure was assessed.
(§2) Experiments were conducted in suspension at 37 °C. The working conditions were set up to avoid cell damage and/or death. With the use of these information, the cells were pre-incubated in sterile glass tubes at 37 °C for 10 min, in the presence or not of cRGDfK pentapeptide (50 µL; 1.65 mM).
(§3) Then, 1 mL of the cell suspension (1 × 10^6 cells/mL) was incubated with intermittent agitation with 10 µL (10 µCi) of ^99mTc1–3. At 90 min, the cells were moved in Eppendorf microcentrifuge tubes (1.5 mL) and the incubation was interrupted by centrifugation (3000 rpm for 5 min at 10 °C). The supernatant (S1) was separated from the pellet. The cell pellet was treated 10 min at room temperature with saline acetate buffer (CH3COOH 0.2M/NaCl 0.5 M) to remove the membrane-bound compound. After centrifugation (3000 rpm for 10 min at 10 °C), the supernatant (S2) was separated from the pellet (P1), and each fraction was collected, placed in a separated counting tube, and the activity was measured using a NaI counter (Cobra II, Packard) to estimate both the cell uptake and the internalized fraction.
(§4) The uptake of complexes was expressed as percentage cell uptake of the total activity on 10^6 cells (% cell uptake/10^6 cells).
(§5) All assessments were conducted in triplicate for three experiments.

[2] = tested on: M21 and M21L melanoma tumors; details: cited from earlier work; for Blood / Heart / Intestine / Kidneys / Liver / Muscle / Stomach: tumor-bearing mice
[3] = assay type: in vitro ADME; details: serum
Method: Thus, to have some predictive indications of the metabolic outcome of our compounds, the binding to serum proteins and the enzymatic biotransformation of ^99mTc1–3 in blood and tissue homogenates were assessed in vitro by incubating the purified compounds at 37 °C in human and mouse sera as well as in murine liver and kidney homogenates.
Protein Binding. The affinity of the ^99mTc(N) complexes toward the serum proteins was evaluated by chromatographic methods.
Upon incubation, 25 µL of each sample was withdrawn and loaded on a pre-spun (735× g for 2 min) Sephadex G-50 mini-column. The column was centrifuged at 735 × g for 1 min. The collected eluate and the column were counted in a NaI-scintillation counter. The protein-bound complex was calculated as the percentage of the total activity.

[4] = assay type: physicochemical
Method: To explore the impact of the PNP ligand on the lipophilicity of the complexes, Log Ps in a mixture of n-octanol and PBS were determined. The lipophilicity decreased in the order ^99mTc1 > ^99mTc2 > ^99mTc3. The lipophilic character of each compound correlated well with the corresponding HPLC retention time and protein binding behavior.
Determination of log P values. n-Octanol/PBS partition coefficients were determined by vortex mixing (20 min) 3.0 mL of n-octanol, 3.0 mL of PBS and 100 µL of the radiolabeled compound purified as above. After centrifugation (3000 g for 10 min), aliquots (100 µL) of both the organic and the aqueous phases were collected and counted with a γ-counter.

[5] = tested on: human melanoma M21 (αvβ3 positive) cells; experiment: Cell uptake and internalization in M21 cells; assay type: cell-based
Method: as §1, §2, §3, §4, §5

## N=C(N)NCCC[C@@H]1NC(=O)[C@H](CCCCNC(=O)c2ccc(NN)nc2)NC(=O)[C@@H](Cc2ccccc2)NC(=O)[C@H](CC(=O)O)NC(=O)CNC1=O [^99mTc-HYNIC-cRGDfK, metal not drawn]
[1]
  cell uptake (sum of surface bound and internalized radioactivity): 1.30 ± 0.15 % cell uptake/10^6 cells
[2]; 1 h p.i.
  M21/M21L ratio: 3.21
  M21/blood ratio: 2.79
  M21/kidneys ratio: 0.74
  M21/liver ratio: 1.03
  M21/muscle ratio: 3.59
  M21L tumor uptake: 0.85 ± 0.20 %IA/g
  M21 tumor uptake: 2.73 ± 0.26 %IA/g
  Blood: 0.98 ± 0.04 %IA/g
  Heart: 1.01 ± 0.05 %IA/g
  Intestine: 2.04 ± 0.18 %IA/g
  Kidneys: 3.68 ± 0.13 %IA/g
  Liver: 2.63 ± 0.14 %IA/g
  Muscle: 0.76 ± 0.69 %IA/g
  Stomach: 2.50 ± 0.75 %IA
[2]; 4 h p.i.
  M21/blood ratio: 4.58
  M21/kidneys ratio: 0.73
  M21/liver ratio: 1.20
  M21/muscle ratio: 6.05
  M21 tumor uptake: 2.06 ± 0.37 %IA/g
  Blood: 0.45 ± 0.02 %IA/g
  Heart: 0.64 ± 0.09 %IA/g
  Intestine: 1.29 ± 0.25 %IA/g
  Kidneys: 2.81 ± 0.37 %IA/g
  Liver: 1.71 ± 0.28 %IA/g
  Muscle: 0.34 ± 0.05 %IA/g
  Stomach: 1.28 ± 0.22 %IA
[3]
  fraction unbound: 0.977
[4]
  logP: -3.52
[5]; M21 blocked by an excess of cold cRGDfK, 37 °C, 90 min
  cell uptake (sum of surface bound and internalized radioactivity), blocked: 0.85 ± 0.08 % cell uptake/10^6 cells
[5]; M21 unblocked, 37 °C, 90 min
  cell uptake (sum of surface bound and internalized radioactivity): 1.50 ± 0.08 % cell uptake/10^6 cells
[5]; internalized radioactivity, melanoma cell lines
  specific/nonspecific ratio, internalized radioactivity only: 6.6
[5]; total uptake, melanoma cell lines
  ratio between specific and non-specific uptake: 1.15

Source: article PMC9029856, “Impact of Different [Tc(N)PNP]-Scaffolds on the Biological Properties of the Small cRGDfK Peptide: Synthesis, In Vitro and In Vivo Evaluations” (Molecules, 2022)
